Assay results as given in ChEMBL document CHEMBL5291721, “A preclinical secondary pharmacology resource illuminates target-adverse drug reaction associations of marketed drugs” (Nat Commun, 2023).

Experiments:
[1] = target: T1, Alpha-2C adrenergic receptor (Homo sapiens, UniProt P18825); type: functional
T1 sequence (P18825 whole entry): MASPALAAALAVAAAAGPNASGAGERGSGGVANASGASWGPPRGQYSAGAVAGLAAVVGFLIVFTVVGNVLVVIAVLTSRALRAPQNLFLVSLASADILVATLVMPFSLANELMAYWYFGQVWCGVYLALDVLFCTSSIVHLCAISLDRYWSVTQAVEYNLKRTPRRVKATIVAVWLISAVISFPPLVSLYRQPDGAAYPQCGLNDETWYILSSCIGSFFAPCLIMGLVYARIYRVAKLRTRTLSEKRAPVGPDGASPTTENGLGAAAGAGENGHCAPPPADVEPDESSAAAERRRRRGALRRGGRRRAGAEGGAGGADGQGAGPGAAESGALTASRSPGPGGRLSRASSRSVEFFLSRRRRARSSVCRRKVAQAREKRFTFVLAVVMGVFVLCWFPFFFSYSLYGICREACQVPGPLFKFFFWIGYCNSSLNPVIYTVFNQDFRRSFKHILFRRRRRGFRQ

[2] = target: Sodium-dependent noradrenaline transporter (Homo sapiens, UniProt P23975)
Chain of Sodium-dependent noradrenaline transporter (P23975 whole entry): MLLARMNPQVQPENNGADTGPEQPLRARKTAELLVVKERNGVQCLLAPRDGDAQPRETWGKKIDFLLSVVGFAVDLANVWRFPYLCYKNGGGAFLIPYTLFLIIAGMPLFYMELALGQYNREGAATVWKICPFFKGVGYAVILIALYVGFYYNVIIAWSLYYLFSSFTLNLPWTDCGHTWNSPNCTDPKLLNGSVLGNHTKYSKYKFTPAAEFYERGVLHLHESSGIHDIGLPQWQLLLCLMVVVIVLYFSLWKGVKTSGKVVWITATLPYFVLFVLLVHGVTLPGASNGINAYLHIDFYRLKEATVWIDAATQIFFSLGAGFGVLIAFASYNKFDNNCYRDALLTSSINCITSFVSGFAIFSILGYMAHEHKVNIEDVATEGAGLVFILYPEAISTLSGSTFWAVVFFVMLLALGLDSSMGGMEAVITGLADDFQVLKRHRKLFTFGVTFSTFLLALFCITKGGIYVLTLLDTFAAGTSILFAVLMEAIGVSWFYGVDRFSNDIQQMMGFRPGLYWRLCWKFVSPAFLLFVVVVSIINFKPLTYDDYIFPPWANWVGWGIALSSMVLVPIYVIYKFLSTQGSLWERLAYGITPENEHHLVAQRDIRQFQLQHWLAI

[3] = target: T2, Amine oxidase [flavin-containing] A (Homo sapiens, UniProt P21397); type: functional
T2 sequence (P21397 whole entry): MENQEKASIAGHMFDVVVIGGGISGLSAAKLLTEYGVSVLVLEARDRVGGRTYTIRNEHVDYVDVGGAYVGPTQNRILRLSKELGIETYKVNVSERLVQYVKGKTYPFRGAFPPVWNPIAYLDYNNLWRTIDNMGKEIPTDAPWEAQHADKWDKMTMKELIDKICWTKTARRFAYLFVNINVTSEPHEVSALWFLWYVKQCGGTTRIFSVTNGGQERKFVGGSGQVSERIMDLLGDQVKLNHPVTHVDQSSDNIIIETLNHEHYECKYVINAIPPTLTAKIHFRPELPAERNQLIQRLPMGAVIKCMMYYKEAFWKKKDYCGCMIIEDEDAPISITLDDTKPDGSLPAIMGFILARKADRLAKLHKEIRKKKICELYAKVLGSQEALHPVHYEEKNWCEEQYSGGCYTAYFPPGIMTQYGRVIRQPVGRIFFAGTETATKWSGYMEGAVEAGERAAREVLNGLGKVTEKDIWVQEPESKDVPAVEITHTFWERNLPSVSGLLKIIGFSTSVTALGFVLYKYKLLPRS

[4] = target: Sodium-dependent dopamine transporter (Homo sapiens, UniProt Q01959)
Chain of Sodium-dependent dopamine transporter (Q01959 whole entry): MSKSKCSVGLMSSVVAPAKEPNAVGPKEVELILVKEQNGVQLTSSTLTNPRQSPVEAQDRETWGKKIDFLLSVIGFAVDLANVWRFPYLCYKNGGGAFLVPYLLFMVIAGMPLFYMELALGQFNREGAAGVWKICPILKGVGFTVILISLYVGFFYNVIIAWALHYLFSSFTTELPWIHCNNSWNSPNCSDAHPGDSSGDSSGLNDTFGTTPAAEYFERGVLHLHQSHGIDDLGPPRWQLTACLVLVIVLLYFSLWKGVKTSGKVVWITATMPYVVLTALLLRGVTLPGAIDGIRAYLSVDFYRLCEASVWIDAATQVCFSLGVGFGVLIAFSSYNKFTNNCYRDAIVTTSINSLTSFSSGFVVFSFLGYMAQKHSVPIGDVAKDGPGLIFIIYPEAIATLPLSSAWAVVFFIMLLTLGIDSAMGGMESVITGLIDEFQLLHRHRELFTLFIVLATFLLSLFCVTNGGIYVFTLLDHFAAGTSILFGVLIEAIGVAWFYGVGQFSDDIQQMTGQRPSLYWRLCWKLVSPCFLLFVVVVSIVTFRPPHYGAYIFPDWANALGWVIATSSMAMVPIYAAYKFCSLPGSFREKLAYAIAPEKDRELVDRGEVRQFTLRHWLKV

[5] = target: cGMP-inhibited 3',5'-cyclic phosphodiesterase 3A (Homo sapiens, UniProt Q14432); type: functional
Chain of cGMP-inhibited 3',5'-cyclic phosphodiesterase 3A (Q14432 whole entry): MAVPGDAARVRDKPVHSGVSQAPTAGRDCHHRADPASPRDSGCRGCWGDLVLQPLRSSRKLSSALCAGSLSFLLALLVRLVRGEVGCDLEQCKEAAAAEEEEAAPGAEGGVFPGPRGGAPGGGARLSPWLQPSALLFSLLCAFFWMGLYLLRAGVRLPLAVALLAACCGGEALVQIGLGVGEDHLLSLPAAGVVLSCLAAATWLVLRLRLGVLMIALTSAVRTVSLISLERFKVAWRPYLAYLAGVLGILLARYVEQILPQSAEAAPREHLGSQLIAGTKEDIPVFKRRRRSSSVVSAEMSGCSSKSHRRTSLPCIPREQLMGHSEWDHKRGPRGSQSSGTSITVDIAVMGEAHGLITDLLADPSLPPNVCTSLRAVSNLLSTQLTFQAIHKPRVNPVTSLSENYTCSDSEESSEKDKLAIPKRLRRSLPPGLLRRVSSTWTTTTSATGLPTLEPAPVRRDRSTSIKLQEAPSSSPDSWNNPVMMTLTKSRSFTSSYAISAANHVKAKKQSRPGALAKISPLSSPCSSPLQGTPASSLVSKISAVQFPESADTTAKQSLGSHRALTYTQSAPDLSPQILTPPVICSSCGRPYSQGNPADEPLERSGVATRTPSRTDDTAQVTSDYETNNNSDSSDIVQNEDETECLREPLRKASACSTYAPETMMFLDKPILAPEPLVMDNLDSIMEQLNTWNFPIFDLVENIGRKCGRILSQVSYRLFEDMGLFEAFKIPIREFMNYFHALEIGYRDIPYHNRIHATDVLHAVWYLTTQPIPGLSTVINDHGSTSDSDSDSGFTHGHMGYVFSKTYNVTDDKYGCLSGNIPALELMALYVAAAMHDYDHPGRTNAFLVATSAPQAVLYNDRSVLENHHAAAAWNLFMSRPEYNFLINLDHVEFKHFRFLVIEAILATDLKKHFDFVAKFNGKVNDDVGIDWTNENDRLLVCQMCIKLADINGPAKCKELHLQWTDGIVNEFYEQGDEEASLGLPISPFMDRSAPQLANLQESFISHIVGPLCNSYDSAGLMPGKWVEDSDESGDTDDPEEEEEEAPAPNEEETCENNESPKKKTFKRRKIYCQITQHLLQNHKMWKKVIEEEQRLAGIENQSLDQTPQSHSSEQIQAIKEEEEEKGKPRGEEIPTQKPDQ

[6] = target: Delta-type opioid receptor (Homo sapiens, UniProt P41143)
Chain of Delta-type opioid receptor (P41143 whole entry): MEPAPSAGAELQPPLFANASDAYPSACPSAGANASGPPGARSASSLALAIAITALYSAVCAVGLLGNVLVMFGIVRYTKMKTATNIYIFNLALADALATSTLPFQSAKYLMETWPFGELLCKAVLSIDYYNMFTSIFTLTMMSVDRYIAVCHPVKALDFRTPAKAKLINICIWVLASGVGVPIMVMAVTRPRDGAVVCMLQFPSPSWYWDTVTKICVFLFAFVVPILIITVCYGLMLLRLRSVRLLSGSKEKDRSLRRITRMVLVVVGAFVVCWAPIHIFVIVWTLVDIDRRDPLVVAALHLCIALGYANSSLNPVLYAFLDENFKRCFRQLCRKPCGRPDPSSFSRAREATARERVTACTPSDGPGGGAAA

Adenosine receptor A2a = Adenosine receptor A2a (Homo sapiens, UniProt P29274)
Chain of Adenosine receptor A2a (P29274 whole entry): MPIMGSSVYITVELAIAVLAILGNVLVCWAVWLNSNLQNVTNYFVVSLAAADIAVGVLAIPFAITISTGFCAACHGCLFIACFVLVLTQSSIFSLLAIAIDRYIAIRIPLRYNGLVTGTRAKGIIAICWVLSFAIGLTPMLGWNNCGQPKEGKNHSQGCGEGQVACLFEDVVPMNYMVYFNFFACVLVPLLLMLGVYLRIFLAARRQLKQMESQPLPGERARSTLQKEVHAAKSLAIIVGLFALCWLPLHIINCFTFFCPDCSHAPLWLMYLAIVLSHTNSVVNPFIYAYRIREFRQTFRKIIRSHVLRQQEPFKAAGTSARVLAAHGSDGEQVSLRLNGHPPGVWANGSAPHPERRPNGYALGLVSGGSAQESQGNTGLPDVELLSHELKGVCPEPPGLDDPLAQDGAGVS

Vasopressin V2 receptor = Vasopressin V2 receptor (Homo sapiens, UniProt P30518)
Chain of Vasopressin V2 receptor (P30518 whole entry): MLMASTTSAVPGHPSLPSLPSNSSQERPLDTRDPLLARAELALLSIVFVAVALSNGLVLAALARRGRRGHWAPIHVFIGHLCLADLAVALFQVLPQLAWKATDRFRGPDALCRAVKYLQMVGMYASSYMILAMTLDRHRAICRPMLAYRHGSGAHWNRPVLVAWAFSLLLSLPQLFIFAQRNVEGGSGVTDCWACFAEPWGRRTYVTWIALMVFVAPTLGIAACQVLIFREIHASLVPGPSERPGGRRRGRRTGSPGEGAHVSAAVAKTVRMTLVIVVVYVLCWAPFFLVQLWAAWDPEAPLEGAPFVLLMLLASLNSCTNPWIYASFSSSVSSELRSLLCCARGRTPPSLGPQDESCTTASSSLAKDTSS

[7] = target: T3, Type-1 angiotensin II receptor (Homo sapiens, UniProt P30556)
T3 sequence (P30556 whole entry): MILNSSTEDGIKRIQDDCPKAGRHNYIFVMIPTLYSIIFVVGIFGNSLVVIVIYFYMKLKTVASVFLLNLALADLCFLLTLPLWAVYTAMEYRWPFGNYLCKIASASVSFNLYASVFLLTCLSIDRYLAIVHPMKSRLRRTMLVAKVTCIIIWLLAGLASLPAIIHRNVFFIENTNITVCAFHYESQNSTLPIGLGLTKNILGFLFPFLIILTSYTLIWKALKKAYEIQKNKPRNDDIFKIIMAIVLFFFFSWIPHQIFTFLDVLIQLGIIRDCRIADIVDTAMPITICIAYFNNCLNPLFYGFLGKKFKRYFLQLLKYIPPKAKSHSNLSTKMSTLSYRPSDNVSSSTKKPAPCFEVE

[8] = target: Glutamate receptor ionotropic, NMDA 1 (Rattus norvegicus, UniProt P35439)
[9] = target: T4, Alpha-2A adrenergic receptor (Homo sapiens, UniProt P08913); type: functional, cell-based
T4 sequence (P08913 whole entry): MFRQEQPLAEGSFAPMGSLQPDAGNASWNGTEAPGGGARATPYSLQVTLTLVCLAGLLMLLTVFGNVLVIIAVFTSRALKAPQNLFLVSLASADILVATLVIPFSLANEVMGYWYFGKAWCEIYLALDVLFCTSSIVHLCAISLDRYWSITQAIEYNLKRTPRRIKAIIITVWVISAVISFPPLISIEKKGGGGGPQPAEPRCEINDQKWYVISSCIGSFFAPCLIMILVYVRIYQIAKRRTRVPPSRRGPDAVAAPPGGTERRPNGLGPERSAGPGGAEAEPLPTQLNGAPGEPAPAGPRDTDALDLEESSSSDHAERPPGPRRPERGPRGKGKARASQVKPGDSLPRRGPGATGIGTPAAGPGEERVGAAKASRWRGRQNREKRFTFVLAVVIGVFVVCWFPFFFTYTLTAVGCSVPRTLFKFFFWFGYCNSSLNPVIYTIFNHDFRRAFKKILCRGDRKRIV

Motilin receptor = Motilin receptor (Homo sapiens, UniProt O43193)
Chain of Motilin receptor (O43193 whole entry): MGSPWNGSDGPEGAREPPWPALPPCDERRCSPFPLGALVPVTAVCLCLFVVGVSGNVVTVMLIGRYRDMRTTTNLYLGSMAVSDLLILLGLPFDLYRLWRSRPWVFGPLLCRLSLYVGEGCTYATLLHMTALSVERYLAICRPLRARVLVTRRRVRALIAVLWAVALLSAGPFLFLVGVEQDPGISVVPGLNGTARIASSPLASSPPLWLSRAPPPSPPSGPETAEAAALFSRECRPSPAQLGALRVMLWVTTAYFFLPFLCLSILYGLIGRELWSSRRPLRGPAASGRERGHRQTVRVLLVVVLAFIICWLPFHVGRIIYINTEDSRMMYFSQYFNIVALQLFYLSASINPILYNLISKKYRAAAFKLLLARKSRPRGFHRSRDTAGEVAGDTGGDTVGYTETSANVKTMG

[10] = target: T5, Neuropeptide Y receptor type 1 (Homo sapiens, UniProt P25929); settings: read-out: AC50
T5 sequence (P25929 whole entry): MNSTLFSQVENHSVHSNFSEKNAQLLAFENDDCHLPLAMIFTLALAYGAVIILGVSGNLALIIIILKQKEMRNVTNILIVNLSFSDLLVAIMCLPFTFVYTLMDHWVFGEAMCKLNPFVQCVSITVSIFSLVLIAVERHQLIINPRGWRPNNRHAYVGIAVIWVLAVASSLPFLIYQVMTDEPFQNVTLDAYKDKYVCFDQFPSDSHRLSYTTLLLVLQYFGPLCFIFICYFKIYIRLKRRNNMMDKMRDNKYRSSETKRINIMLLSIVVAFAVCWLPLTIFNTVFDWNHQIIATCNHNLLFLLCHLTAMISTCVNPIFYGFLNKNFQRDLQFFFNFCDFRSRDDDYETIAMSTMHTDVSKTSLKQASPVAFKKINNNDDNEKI
Further: assay procedure not described here.

| Compound | AC50 [1] | AC50 [2] | AC50 [3] | AC50 [4] | AC50 [5] | AC50 [6] | AC50 (Adenosine receptor A2a) | AC50 (Vasopressin V2 receptor) | AC50 [7] | AC50 [8] | AC50 [9] | AC50 (Motilin receptor) | AC50 [10] |
| --- | --- | --- | --- | --- | --- | --- | --- | --- | --- | --- | --- | --- | --- |
| CC(=O)N[C@@H](CS)C(=O)O [ACETYLCYSTEINE] | > 30 µM | > 30 µM | > 30 µM | > 30 µM | > 30 µM | > 30 µM | > 30 µM | > 30 µM | > 30 µM | > 30 µM | > 30 µM | > 30 µM | > 30 µM |
| C=CCNc1nc(NCC=C)nc(N2CCN(C(c3ccc(F)cc3)c3ccc(F)cc3)CC2)n1 [ALMITRINE] | > 30 µM | > 30 µM | > 30 µM | > 30 µM | > 30 µM | > 30 µM | > 30 µM | > 30 µM | > 30 µM | > 30 µM | > 30 µM | > 30 µM | > 30 µM |
| CC(C)COCC(CN(Cc1ccccc1)c1ccccc1)N1CCCC1 (configuration not stated) [BEPRIDIL] | 3.3 µM | 21 µM | > 30 µM | 16.2 µM | > 30 µM | > 30 µM | > 30 µM | > 30 µM | > 30 µM | > 30 µM | > 30 µM | 20.2 µM | > 30 µM |
| CCCCC(=O)O[C@]1(C(=O)CO)[C@@H](C)C[C@H]2[C@@H]3CCC4=CC(=O)C=C[C@]4(C)[C@@]3(F)[C@@H](O)C[C@@]21C [BETAMETHASONE VALERATE] | > 10 µM | > 30 µM | > 10 µM | > 30 µM | > 30 µM | > 30 µM | > 30 µM | > 30 µM | > 30 µM | > 10 µM | > 10 µM | > 10 µM | > 30 µM |
| C/N=C(\NC)NCc1ccccc1 [BETHANIDINE] | > 30 µM | > 30 µM | > 30 µM | > 30 µM | > 30 µM | > 30 µM | > 30 µM | > 30 µM | > 30 µM | > 30 µM | > 30 µM | > 30 µM | > 30 µM |
| COCC1=C(C(=O)O)N2C(=O)[C@@H](NC(=O)/C(=N\OC)c3csc(N)n3)[C@H]2SC1 [CEFPODOXIME] | > 30 µM | > 30 µM | > 30 µM | > 30 µM | > 30 µM | > 30 µM | > 30 µM | > 30 µM | > 30 µM | > 30 µM | > 30 µM | > 30 µM | > 30 µM |
| CC1OC2(CS1)CN1CCC2CC1 (configuration not stated) [CEVIMELINE] | > 30 µM | > 10 µM | > 30 µM | > 10 µM | > 30 µM | > 30 µM | > 10 µM | > 10 µM | > 10 µM | > 10 µM | > 10 µM | > 10 µM | > 10 µM |
| CNC1=Nc2ccc(Cl)cc2C(c2ccccc2)=[N+]([O-])C1 [CHLORDIAZEPOXIDE] | > 10 µM | > 30 µM | > 10 µM | > 30 µM | > 30 µM | > 30 µM | > 30 µM | > 30 µM | > 30 µM | > 10 µM | > 10 µM | > 10 µM | > 30 µM |
| COc1cc(N)c(Cl)cc1C(=O)NC1CCN(Cc2ccccc2)CC1 [CLEBOPRIDE] | 2.1 µM | 15 µM | > 30 µM | 22 µM | 7.7 µM | > 30 µM | > 30 µM | > 30 µM | > 30 µM | > 30 µM | > 30 µM | > 30 µM | > 30 µM |
| Nc1ncn([C@H]2C[C@H](O)[C@@H](CO)O2)c(=O)n1 [DECITABINE] | > 30 µM | > 30 µM | > 30 µM | > 30 µM | > 30 µM | > 30 µM | > 30 µM | > 30 µM | > 30 µM | > 30 µM | > 30 µM | > 30 µM | > 30 µM |
| CC(C)(C)C(=O)OCC(=O)[C@H]1CC[C@H]2[C@@H]3CCC4=CC(=O)CC[C@]4(C)[C@H]3CC[C@]12C [DESOXYCORTICOSTERONE PIVALATE] | > 10 µM | > 10 µM | > 10 µM | > 10 µM | > 30 µM | > 30 µM | > 10 µM | > 10 µM | > 10 µM | > 10 µM | > 10 µM | > 10 µM | > 10 µM |
| CC(CCc1ccc(O)cc1)NCCc1ccc(O)c(O)c1 (configuration not stated) [DOBUTAMINE] | 0.798 µM | 1.73 µM | > 30 µM | 0.897 µM | > 30 µM | > 30 µM | > 30 µM | > 30 µM | > 30 µM | > 30 µM | > 30 µM | > 30 µM | > 30 µM |
| CCOC(=O)c1cncn1[C@H](C)c1ccccc1 [ETOMIDATE] | > 10 µM | > 10 µM | > 10 µM | > 10 µM | > 30 µM | > 30 µM | > 10 µM | > 10 µM | > 10 µM | > 10 µM | > 10 µM | > 10 µM | > 10 µM |
| CC(C(=O)O)c1ccc(-c2ccccc2)c(F)c1 (configuration not stated) [FLURBIPROFEN] | > 10 µM | > 10 µM | > 10 µM | > 10 µM | > 30 µM | > 30 µM | > 10 µM | > 10 µM | > 10 µM | > 10 µM | > 10 µM | > 10 µM | > 10 µM |
